From paper PMC6199744, “Development of Chemical Proteomics for the Folateome and Analysis of the Kinetoplastid Folateome” (ACS Infectious Diseases, 2018)
Like-named read-outs stand apart in the source and are kept apart here.

Assays:
Type in all cases: binding
[1] = target: T1, HeLa cell extract proteins (Homo sapiens, UniProt P16219)
T1 construct: endogenous in cells; host or cells: HeLa cell extract
T1 sequence (P16219 25-412): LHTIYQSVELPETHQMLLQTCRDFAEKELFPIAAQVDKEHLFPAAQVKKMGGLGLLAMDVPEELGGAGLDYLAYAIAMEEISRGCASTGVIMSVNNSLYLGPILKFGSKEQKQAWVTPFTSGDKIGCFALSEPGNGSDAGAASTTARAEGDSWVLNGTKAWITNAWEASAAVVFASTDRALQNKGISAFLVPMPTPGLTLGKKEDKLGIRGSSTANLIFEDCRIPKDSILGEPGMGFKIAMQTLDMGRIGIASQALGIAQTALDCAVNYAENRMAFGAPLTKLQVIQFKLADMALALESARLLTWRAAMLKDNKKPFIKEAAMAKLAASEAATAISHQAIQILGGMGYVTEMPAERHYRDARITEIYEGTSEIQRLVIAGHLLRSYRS

[2] = target: T2, HeLa cell extract proteins (Homo sapiens, UniProt Q13618)
T2 construct: endogenous in cells; host or cells: HeLa cell extract
T2 sequence (Q13618 whole entry): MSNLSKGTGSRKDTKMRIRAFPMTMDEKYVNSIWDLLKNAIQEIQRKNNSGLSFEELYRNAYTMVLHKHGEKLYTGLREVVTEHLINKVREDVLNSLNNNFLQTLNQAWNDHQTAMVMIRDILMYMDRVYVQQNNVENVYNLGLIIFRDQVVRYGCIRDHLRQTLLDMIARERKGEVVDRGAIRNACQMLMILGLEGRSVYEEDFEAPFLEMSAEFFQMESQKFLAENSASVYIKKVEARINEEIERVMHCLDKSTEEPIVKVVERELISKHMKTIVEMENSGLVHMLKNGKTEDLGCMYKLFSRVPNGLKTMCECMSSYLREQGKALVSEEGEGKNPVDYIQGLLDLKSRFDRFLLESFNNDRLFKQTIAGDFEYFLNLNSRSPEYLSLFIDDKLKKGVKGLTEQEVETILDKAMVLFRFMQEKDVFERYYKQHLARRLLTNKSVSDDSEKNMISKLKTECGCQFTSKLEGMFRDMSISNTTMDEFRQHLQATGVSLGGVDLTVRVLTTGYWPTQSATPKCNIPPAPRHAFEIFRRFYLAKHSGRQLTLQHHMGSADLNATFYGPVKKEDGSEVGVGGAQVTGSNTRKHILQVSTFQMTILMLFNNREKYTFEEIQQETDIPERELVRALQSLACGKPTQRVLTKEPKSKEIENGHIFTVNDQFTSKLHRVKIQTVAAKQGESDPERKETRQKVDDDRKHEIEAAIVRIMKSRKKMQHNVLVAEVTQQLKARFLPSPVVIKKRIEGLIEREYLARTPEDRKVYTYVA

[3] = target: T3, HeLa cell extract proteins (Homo sapiens, UniProt O00330)
T3 construct: endogenous in cells; host or cells: HeLa cell extract
T3 sequence (O00330 54-501): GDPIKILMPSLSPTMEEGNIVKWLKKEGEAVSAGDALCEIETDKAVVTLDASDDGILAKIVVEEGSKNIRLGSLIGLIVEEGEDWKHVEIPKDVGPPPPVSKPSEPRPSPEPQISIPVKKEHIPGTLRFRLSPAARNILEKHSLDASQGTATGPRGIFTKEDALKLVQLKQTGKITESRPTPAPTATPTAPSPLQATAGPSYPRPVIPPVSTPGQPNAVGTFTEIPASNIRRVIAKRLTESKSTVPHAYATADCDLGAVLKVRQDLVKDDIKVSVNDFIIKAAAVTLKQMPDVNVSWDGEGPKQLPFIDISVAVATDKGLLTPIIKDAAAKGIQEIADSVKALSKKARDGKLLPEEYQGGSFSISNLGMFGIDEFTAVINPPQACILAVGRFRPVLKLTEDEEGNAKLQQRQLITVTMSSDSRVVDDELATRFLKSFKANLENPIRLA

[4] = target: T4, HeLa cell extract proteins (Homo sapiens, UniProt Q15645)
T4 construct: endogenous in cells; host or cells: HeLa cell extract
T4 sequence (Q15645 1-432): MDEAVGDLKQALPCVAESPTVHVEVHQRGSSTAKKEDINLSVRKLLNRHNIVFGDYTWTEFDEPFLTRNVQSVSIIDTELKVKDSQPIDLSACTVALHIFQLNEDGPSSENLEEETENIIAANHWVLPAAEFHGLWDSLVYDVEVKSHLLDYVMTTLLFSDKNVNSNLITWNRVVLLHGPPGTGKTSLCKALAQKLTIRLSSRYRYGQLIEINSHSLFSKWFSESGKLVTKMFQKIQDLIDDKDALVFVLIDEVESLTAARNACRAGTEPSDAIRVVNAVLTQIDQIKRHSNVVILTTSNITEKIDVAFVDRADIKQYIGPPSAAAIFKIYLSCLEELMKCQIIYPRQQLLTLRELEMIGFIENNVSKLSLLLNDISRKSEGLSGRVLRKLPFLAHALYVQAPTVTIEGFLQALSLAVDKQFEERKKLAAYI

[5] = target: T5, HeLa cell extract proteins (Homo sapiens, UniProt Q12769)
T5 construct: endogenous in cells; host or cells: HeLa cell extract
T5 sequence (Q12769 1-1436): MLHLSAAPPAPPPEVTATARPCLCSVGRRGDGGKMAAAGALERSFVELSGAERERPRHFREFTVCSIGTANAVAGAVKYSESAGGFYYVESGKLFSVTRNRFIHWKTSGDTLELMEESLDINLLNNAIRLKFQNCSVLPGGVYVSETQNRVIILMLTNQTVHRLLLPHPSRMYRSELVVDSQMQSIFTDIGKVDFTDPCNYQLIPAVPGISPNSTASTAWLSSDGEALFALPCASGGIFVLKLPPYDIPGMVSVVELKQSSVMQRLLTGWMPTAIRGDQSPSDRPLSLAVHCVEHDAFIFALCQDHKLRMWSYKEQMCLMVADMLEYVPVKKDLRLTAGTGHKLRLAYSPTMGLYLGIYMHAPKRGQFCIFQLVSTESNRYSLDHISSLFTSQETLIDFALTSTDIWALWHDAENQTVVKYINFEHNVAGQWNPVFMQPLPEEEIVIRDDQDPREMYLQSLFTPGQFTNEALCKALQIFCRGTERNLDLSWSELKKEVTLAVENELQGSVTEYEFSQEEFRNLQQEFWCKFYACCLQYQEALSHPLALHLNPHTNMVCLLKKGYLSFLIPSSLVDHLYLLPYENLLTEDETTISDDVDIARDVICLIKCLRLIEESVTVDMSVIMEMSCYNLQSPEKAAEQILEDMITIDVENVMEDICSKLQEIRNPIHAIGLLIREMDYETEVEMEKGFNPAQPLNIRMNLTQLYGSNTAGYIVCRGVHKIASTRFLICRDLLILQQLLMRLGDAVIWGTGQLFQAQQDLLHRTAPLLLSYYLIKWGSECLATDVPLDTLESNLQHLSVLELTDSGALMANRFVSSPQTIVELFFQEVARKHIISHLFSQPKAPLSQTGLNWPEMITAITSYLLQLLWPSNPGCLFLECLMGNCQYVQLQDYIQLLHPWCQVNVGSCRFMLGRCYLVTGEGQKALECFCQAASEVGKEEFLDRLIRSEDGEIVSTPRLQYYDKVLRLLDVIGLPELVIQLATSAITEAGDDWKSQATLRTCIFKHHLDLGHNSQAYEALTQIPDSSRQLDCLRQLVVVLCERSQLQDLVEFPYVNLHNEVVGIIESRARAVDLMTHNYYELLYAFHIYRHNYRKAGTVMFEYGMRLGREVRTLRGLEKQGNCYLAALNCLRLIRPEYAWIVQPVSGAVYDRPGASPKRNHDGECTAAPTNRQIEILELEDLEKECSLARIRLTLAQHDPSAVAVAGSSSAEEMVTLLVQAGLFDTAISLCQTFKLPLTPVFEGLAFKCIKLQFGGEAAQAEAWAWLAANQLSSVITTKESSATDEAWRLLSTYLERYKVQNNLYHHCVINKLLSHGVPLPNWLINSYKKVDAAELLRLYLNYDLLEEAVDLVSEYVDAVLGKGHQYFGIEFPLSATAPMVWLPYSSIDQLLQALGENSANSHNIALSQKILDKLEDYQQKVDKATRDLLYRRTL

[6] = HeLa, protein ACADS (SHORT-CHAIN SPECIFIC ACYL-COA DEHYDROGENASE, MIT[…])
[7] = HeLa, protein PDHX (PYRUVATE DEH[…] X COMPONENT, MIT[…])

SMILES: Nc1nc2c(c(=O)[nH]1)N(C=O)C(CNc1ccc(C(=O)N[C@@H](CCC(=O)O)C(=O)O)cc1)CN2 (some centres unmarked) [LEU, leucovorin]
- fold changes relative to vehicle control [1, 6]: 1.06
- fold changes relative to vehicle control ([2]; HeLa, protein CUL3): 0.92
- fold changes relative to vehicle control [3, 7]: 1.05
- fold changes relative to vehicle control ([4]; HeLa, protein TRIP13): 0.92
- fold changes relative to vehicle control ([5]; HeLa, captured protein NUP160): 1.02

SMILES: Nc1nc2[nH]cc(CCc3ccc(C(=O)N[C@@H](CCC(=O)O)C(=O)O)cc3)c2c(=O)[nH]1 [PTX, pemetrexed]
- fold changes relative to vehicle control [1]: 1.09
- fold changes relative to vehicle control [2]: 0.92
- fold changes relative to vehicle control [3]: 0.98
- fold changes relative to vehicle control [4]: 0.88
- fold changes relative to vehicle control [5]: 1.07

SMILES: CCCCCCOc1ccc(Cc2cnc(N)nc2N)cc1 [compound 1]
- fold changes relative to vehicle control ([1]; protein ACADS, HeLa): 0.91
- fold changes relative to vehicle control ([2]; captured protein CUL3, HeLa): 1.01
- fold changes relative to vehicle control ([3]; protein PDHX, HeLa): 1
- fold changes relative to vehicle control ([4]; HeLa, protein TRIP13): 0.96
- fold changes relative to vehicle control ([5]; HeLa, protein NUP160): 1.03

SMILES: CCCCCCOc1cccc(Cc2cnc(N)nc2N)c1 [compound 2]
- fold changes relative to vehicle control ([1]; protein ACADS, HeLa): 1.1
- fold changes relative to vehicle control ([2]; captured protein CUL3, HeLa): 1.17
- fold changes relative to vehicle control ([3]; protein PDHX, HeLa): 0.43
- fold changes relative to vehicle control ([4]; HeLa, protein TRIP13): 1.17
- fold changes relative to vehicle control ([5]; HeLa, protein NUP160): 1.11

SMILES: Nc1nc2cccc(-c3ccccc3)c2n1Cc1ccc(Cl)c(Cl)c1 [compound 3]
- fold changes relative to vehicle control ([1]; protein ACADS, HeLa): 0.99
- fold changes relative to vehicle control ([2]; captured protein CUL3, HeLa): 0.93
- fold changes relative to vehicle control ([3]; protein PDHX, HeLa): 1.12
- fold changes relative to vehicle control ([4]; HeLa, protein TRIP13): 1.24
- fold changes relative to vehicle control ([5]; HeLa, protein NUP160): 1.2

SMILES: NCCOCCOCC(=O)Nc1nc2ncc(CNc3ccc(C(=O)NC(CCC(=O)O)C(=O)O)cc3)nc2c(=O)[nH]1 (centres unmarked) [compound 6]
- fold changes relative to vehicle control [1, 6]: 1.07
- fold changes relative to vehicle control ([2]; HeLa, protein CUL3): 0.97
- fold changes relative to vehicle control ([3]; HeLa, protein PDHX (PYRUVATE DEHYDROGENASE PROTEIN X COMPONENT, MITOCHONDRIAL PRECURSOR)): 0.92
- fold changes relative to vehicle control ([4]; HeLa, protein TRIP13): 0.94
- fold changes relative to vehicle control ([5]; HeLa, captured protein NUP160): 1.14

SMILES: NCCCNc1ccc(C(=O)NC(CCC(=O)O)C(=O)O)cc1 (centres unmarked) [compound 7]
- fold changes relative to vehicle control [1, 6]: 1.04
- fold changes relative to vehicle control ([2]; HeLa, protein CUL3): 0.91
- fold changes relative to vehicle control [3, 7]: 1.02
- fold changes relative to vehicle control ([4]; HeLa, protein TRIP13): 1.09
- fold changes relative to vehicle control ([5]; HeLa, captured protein NUP160): 1.12
